Tests used:
bacteria [1] = assay: Determination of sensitivity of bacteria (Table 8); format: cell-based; details: product at 50, 40, 30 ppm (columns 10-12)
Method: (§1) The purpose was to determine the antimicrobial action of a combination of cashew nut liquid and ricinoleic acid, and the effects on yeast (Saccharomyces cerevisiae) during alcoholic fermentation, response to different dosages and under acidic conditions. The items below were evaluated: • Laboratory fermentation with Saccharomyces cerevisiae by evaluating the feasibility and growth of yeast, in addition to bacteria developed at different concentrations of the products and mixtures; • Evaluation of the deflocculation power of yeast in fermentations at several dosages of the products and mixtures; • Evaluation of different dosages in the test for Sensitivity of Bacteria to define the quantity of products and mixtures to be recommended in the fermentation process by comparing them to other antibiotics previously tested and approved being used in the current market; • Identification of the characteristics of products and mixtures during the handling; • Evaluation of products and mixtures at low pH by simulating the conventional treatment of the yeast milk. The studies were based on the cause vs. effect methodology, using the observation of the growth of microorganisms as a parameter for responses. […]

bacteria [2] = assay: Determination of sensitivity of bacteria (Table 9); format: cell-based; details: product at 30 ppm (column 12; columns 11-14 also Free Bacter 3 ppm, Prevent 5 and 3 ppm)
Method: as §1

[3] = tested on: Eimeria tenella, Eimeria maxima, and Eimeria acervulina; assay: Performance of chickens inoculated with Eimeria oocysts, first to 40th day of age (Example 2); format: in vivo; details: salinomycin 66 ppm, AC 1500 ppm, inoculated at 18th day
From the text: (§2) Seven hundred and twenty chickens were randomly distributed into four treatments with six repetitions each, with 30 animals in each repetition. The birds were placed in a conventional yard divided into boxes.
(§3) The four treatments were (1. Non-inoculated, without anticoccidial; 2. Inoculated without anticoccidial; 3. Inoculated-salinomycin (66 ppm); 4. inoculated-AC (1500 ppm)). The birds were inoculated at the 18th day of age with 0.5 liter of inocula containing 10,000, 9,000, and 8,000 sporulated oocysts of Eimeria tenella, Eimeria maxima, and Eimeria acervulina, respectively. This solution was mixed with the feed and offered to each group of 30 birds. At the 24th day of age, the degree of intestinal lesion was evaluated (0—no lesion, 4—maximum lesion). The AC composition was 12% castor oil, 40% cashew nut liquid, and 48% carrier.
(§4) The experimental design utilized seven hundred and twenty chickens which were randomly distributed into four treatments and six repetitions. The averages were compared using the SNK test (Student-Newman-Keuls).

E. acervulina = assay: Degree of intestinal lesion in inoculated chickens, E. acervulina (Example 2); format: in vivo; details: 24th day of age; 0 no lesion, 4 maximum lesion; salinomycin 66 ppm, AC 1500 ppm
From the text: as §2, §3, §4

E. maxima = assay: Degree of intestinal lesion in inoculated chickens, E. maxima (Example 2); format: in vivo; details: 24th day of age; 0 no lesion, 4 maximum lesion; salinomycin 66 ppm, AC 1500 ppm
From the text: as §2, §3, §4

E. tenella = assay: Degree of intestinal lesion in inoculated chickens, E. tenella (Example 2); format: in vivo; details: 24th day of age; 0 no lesion, 4 maximum lesion; salinomycin 66 ppm, AC 1500 ppm
From the text: as §2, §3, §4

Compound | Performance in sensitivity of bacteria test (bacteria [1]) | Performance in sensitivity of bacteria test (bacteria [2]) | Final weight ([3]; 40th day of age) [b g] | Alimentary conversion ([3]; first to 40th day of age) [a] | Ingestion ([3]; first to 40th day of age) [bc g] | Viability ([3]; first to 40th day of age) [a] | Weight gain ([3]; first to 40th day of age) [b g] | Degree of intestinal lesion, E. acervulina (E. acervulina) [b] | Degree of intestinal lesion, E. maxima (E. maxima) [a] | Degree of intestinal lesion, E. tenella (E. tenella) [a]
CCCCCC[C@@H](O)C/C=C\CCCCCCCC(=O)O [Product P2, Ricinoleic Acid] | negative results | negative results | – | – | – | – | – | – | – | –
CC[C@@H](C(=O)[C@@H](C)[C@@H](O)[C@H](C)[C@@H]1O[C@@H]([C@@H](CC)C(=O)O)CC[C@@H]1C)[C@H]1O[C@]2(C=C[C@@H](O)[C@]3(CC[C@@](C)([C@H]4CC[C@](O)(CC)[C@H](C)O4)O3)O2)[C@H](C)C[C@@H]1C [salinomycin] | – | – | 2305 | 1.78 | 4018 | 97.5 | 2261 | 0.72 | 0.72 | 1.61

— patent US8377485B2, “Antimicrobial composition and use thereof” (Oligo Basics Industria e Comercio de Racao Ltda, priority 2007, dated 2013)
